# According to ChEMBL document CHEMBL2321853, “Novel acylethanolamide derivatives that modulate body weight through enhancement of hypothalamic pro-opiomelanocortin (POMC) and/or decreased neuropeptide Y (NPY)” (J Med Chem, 2013):
# Calls of active or inactive are those of the source. No cut-off for these calls is given here.
# Experiments:
# Mus musculus [1] = assay: Antiobesity activity in Sabra mouse assessed as change in body weight at 1 mg/kg, ip administered on day 8, 9, 10, 11, 14, 18, 24 and 32 measured on day 35 relative to control; format: functional; conditions: route intraperitoneal
# Mus musculus [2] = assay: Antiobesity activity in C57BL/6 mouse assessed as weight loss at 5 mg/kg, ip administered on day 1, 4, 5, 7, 17, 15, 19 measured on day 15 relative to control; format: functional; conditions: route intraperitoneal
# Mus musculus [3] = assay: Antiobesity activity in high fat diet fed C57BL/6 mouse assessed as reduction in body weight at 1 mg/kg, ip administered on day 3, 6, 8, 9, 10 measured on day 7 relative to control; format: functional; set-up: scale not given: the % may be the effect or the level left; conditions: route intraperitoneal
# Mus musculus [4] = assay: Antiobesity activity in Sabra mouse assessed as change in body weight at 1 mg/kg, ip administered on day 8, 12 and 43 measured on day 5 relative to control; format: functional; conditions: route intraperitoneal
# Hypothalamus = assay: Effect on NPY gene expression in Sabra mouse hypothalamus assessed as change in mRNA level at 1 mg/kg, ip administered on day 8, 9, 10, 11, 14, 18, 24 and 32 by RT-PCR analysis relative to GAPDH; format: functional; conditions: route intraperitoneal
# Mus musculus [5] = assay: Hepatotoxicity in Sabra mouse assessed as coagulative necrosis changes at 1 mg/kg, ip administered on day 8, 9, 10, 11, 14, 18, 24 and 32 by hematoxylin and eosin staining-based histopathological analysis; format: toxicity, organism-based; set-up: dose 1 mg/kg, route intraperitoneal; conditions: in vivo
# Mus musculus [6] = assay: Increase in motor activity Sabra mouse at 1 mg/kg, ip administered on day 8, 9, 10, 11, 14, 18, 24 and 32 measured on day 14 by open field test; format: functional, organism-based; set-up: dose 1 mg/kg
# Mus musculus [7] = assay: Antiobesity activity in C57BL/6 mouse assessed as change in AST level at 5 mg/kg, ip measured on day 36 (reference value: 146.7 IU/L); format: functional; conditions: route intraperitoneal
# Mus musculus [8] = assay: Antiobesity activity in Sabra mouse assessed as change in body weight at 1 mg/kg, ip administered on day 8, 12 and 43 measured on day 8 relative to control; format: functional; conditions: route intraperitoneal
# Mus musculus [9] = assay: Enhancement of cognitive function in Sabra mouse at 1 mg/kg, ip measured on day 8 to 12 by eight-arm maze test; format: functional, organism-based; set-up: dose 1 mg/kg
structure (smiles),measurement,setting,value
CCCCCCCC/C=C\CCCCCCCC(=O)N[C@H](CO)C(C)C,Activity,Mus musculus [1],-6.2%
same,Activity,Mus musculus [2],-4.7%
same,Activity,Mus musculus [3],-3.2%
same,Activity,Mus musculus [4],1.8%
same,Activity,Hypothalamus,-11%
same,Activity,Mus musculus [5],Non-toxic
same,Activity,Mus musculus [6],Active
same,Activity,Mus musculus [7],126 IU/L
same,Activity,Mus musculus [8],0.7%
same,Activity,Mus musculus [9],Active
